Assay results from PubChem BioAssay (NCI).
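At the GI50, growth is halved. TGI: total growth inhibition.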

Tests used:
Assay in all cases: growth of human tumour cells (NCI), 384-well format
786-0 renal = tested on: 786-0 renal
A498 renal = tested on: A498 renal
A549 NSCLC = tested on: A549 NSCLC
ACHN renal = tested on: ACHN renal
BT-549 breast = tested on: BT-549 breast
CAKI-1 renal = tested on: CAKI-1 renal
CCRF-CEM leukemia = tested on: CCRF-CEM leukemia
COLO 205 colon = tested on: COLO 205 colon
DU-145 prostate = tested on: DU-145 prostate
EKVX NSCLC = tested on: EKVX NSCLC
HCC-2998 colon = tested on: HCC-2998 colon
HCT-116 colon = tested on: HCT-116 colon
HCT-15 colon = tested on: HCT-15 colon
HL-60(TB) leukemia = tested on: HL-60(TB) leukemia
HOP-62 NSCLC = tested on: HOP-62 NSCLC
HOP-92 NSCLC = tested on: HOP-92 NSCLC
HS 578T breast = tested on: HS 578T breast
HT29 colon = tested on: HT29 colon
IGROV1 ovarian = tested on: IGROV1 ovarian
K-562 leukemia = tested on: K-562 leukemia
KM12 colon = tested on: KM12 colon
LOX IMVI melanoma = tested on: LOX IMVI melanoma
M14 melanoma = tested on: M14 melanoma
MALME-3M melanoma = tested on: MALME-3M melanoma
MCF7 breast = tested on: MCF7 breast
MDA-MB-231 breast = tested on: MDA-MB-231 breast
MDA-MB-435 melanoma = tested on: MDA-MB-435 melanoma
MDA-MB-468 breast = tested on: MDA-MB-468 breast
MOLT-4 leukemia = tested on: MOLT-4 leukemia
NCI-H226 lung = tested on: NCI-H226 lung
NCI-H23 lung = tested on: NCI-H23 lung
NCI-H322M lung = tested on: NCI-H322M lung
NCI-H460 NSCLC = tested on: NCI-H460 NSCLC
NCI-H522 lung = tested on: NCI-H522 lung
NCI/ADR-RES ovarian = tested on: NCI/ADR-RES ovarian
OVCAR-3 ovarian = tested on: OVCAR-3 ovarian
OVCAR-4 ovarian = tested on: OVCAR-4 ovarian
OVCAR-8 ovarian = tested on: OVCAR-8 ovarian
PC-3 prostate = tested on: PC-3 prostate
RPMI-8226 leukemia = tested on: RPMI-8226 leukemia
RXF 393 renal = tested on: RXF 393 renal
SF-268 CNS = tested on: SF-268 CNS
SF-295 CNS = tested on: SF-295 CNS
SF-539 CNS = tested on: SF-539 CNS
SK-MEL-28 melanoma = tested on: SK-MEL-28 melanoma
SK-MEL-5 melanoma = tested on: SK-MEL-5 melanoma
SK-OV-3 ovarian = tested on: SK-OV-3 ovarian
SN12C renal = tested on: SN12C renal
SNB-19 CNS = tested on: SNB-19 CNS
SNB-75 CNS = tested on: SNB-75 CNS
SR leukemia = tested on: SR leukemia
SW-620 colon = tested on: SW-620 colon
T-47D breast = tested on: T-47D breast
TK-10 renal = tested on: TK-10 renal
U251 glioblastoma = tested on: U251 glioblastoma
UACC-257 melanoma = tested on: UACC-257 melanoma
UACC-62 melanoma = tested on: UACC-62 melanoma
UO-31 renal = tested on: UO-31 renal

## O=C(NOCCO)c1ccc2cncn2c1Nc1ccc(I)cc1F
786-0 renal
  GI50: 1.23 µM
  TGI: 20.7 µM
A498 renal
  GI50: 11.9 µM
  TGI: 32.4 µM
A549 NSCLC
  GI50: 0.026 µM
  TGI: 11.1 µM
ACHN renal
  GI50: 7.88 µM
  TGI: > 100 µM
BT-549 breast
  GI50: 10 µM
  TGI: 25.4 µM
CAKI-1 renal
  GI50: 0.0109 µM
  TGI: 13.3 µM
CCRF-CEM leukemia
  GI50: 13.3 µM
  TGI: 27 µM
COLO 205 colon
  GI50: < 0.01 µM
  TGI: 0.0258 µM
DU-145 prostate
  GI50: 2.14 µM
  TGI: 22.4 µM
EKVX NSCLC
  GI50: 0.153 µM
  TGI: 17.8 µM
HCC-2998 colon
  GI50: < 0.01 µM
  TGI: 0.0101 µM
HCT-116 colon
  GI50: < 0.01 µM
  TGI: 0.191 µM
HCT-15 colon
  GI50: 0.301 µM
  TGI: > 100 µM
HL-60(TB) leukemia
  GI50: < 0.01 µM
  TGI: < 0.01 µM
HOP-62 NSCLC
  GI50: 0.0128 µM
  TGI: 15.3 µM
HOP-92 NSCLC
  GI50: 0.012 µM
  TGI: 0.198 µM
HS 578T breast
  GI50: 1.22 µM
  TGI: 7.01 µM
HT29 colon
  GI50: < 0.01 µM
  TGI: 14.3 µM
IGROV1 ovarian
  GI50: < 0.01 µM
  TGI: 12.6 µM
K-562 leukemia
  GI50: 0.0267 µM
  TGI: 14.7 µM
KM12 colon
  GI50: < 0.01 µM
  TGI: 17.9 µM
LOX IMVI melanoma
  GI50: < 0.01 µM
  TGI: 0.259 µM
M14 melanoma
  GI50: < 0.01 µM
  TGI: < 0.01 µM
MALME-3M melanoma
  GI50: < 0.01 µM
  TGI: < 0.01 µM
MCF7 breast
  GI50: 11.5 µM
  TGI: 47.2 µM
MDA-MB-231 breast
  GI50: < 0.01 µM
  TGI: 1.02 µM
MDA-MB-435 melanoma
  GI50: < 0.01 µM
  TGI: 21.1 µM
MDA-MB-468 breast
  GI50: 6.92 µM
  TGI: 21.5 µM
MOLT-4 leukemia
  GI50: 14.8 µM
  TGI: 31.7 µM
NCI-H226 lung
  GI50: 1.01 µM
  TGI: 18.3 µM
NCI-H23 lung
  GI50: < 0.01 µM
  TGI: 0.077 µM
NCI-H322M lung
  GI50: 0.0325 µM
  TGI: 15.5 µM
NCI-H460 NSCLC
  GI50: < 0.01 µM
  TGI: 22.1 µM
NCI-H522 lung
  GI50: 11.8 µM
  TGI: 26.4 µM
NCI/ADR-RES ovarian
  GI50: 23.1 µM
  TGI: > 100 µM
OVCAR-3 ovarian
  GI50: 11.2 µM
  TGI: 29.1 µM
OVCAR-4 ovarian
  GI50: 4.22 µM
  TGI: 38.3 µM
OVCAR-8 ovarian
  GI50: 2.6 µM
  TGI: 18.2 µM
PC-3 prostate
  GI50: 18.1 µM
  TGI: 35.4 µM
RPMI-8226 leukemia
  GI50: 2.16 µM
  TGI: 20.9 µM
RXF 393 renal
  GI50: 0.196 µM
  TGI: 15.1 µM
SF-268 CNS
  GI50: 9.41 µM
  TGI: 22.9 µM
SF-295 CNS
  GI50: 11.1 µM
  TGI: 26.2 µM
SF-539 CNS
  GI50: 0.288 µM
  TGI: 11.7 µM
SK-MEL-28 melanoma
  GI50: < 0.01 µM
  TGI: < 0.01 µM
SK-MEL-5 melanoma
  GI50: < 0.01 µM
  TGI: 15.8 µM
SK-OV-3 ovarian
  GI50: 2.76 µM
  TGI: 18.7 µM
SN12C renal
  GI50: < 0.01 µM
  TGI: 17.9 µM
SNB-19 CNS
  GI50: 0.0878 µM
  TGI: 20.6 µM
SNB-75 CNS
  GI50: 0.34 µM
  TGI: 15.7 µM
SR leukemia
  GI50: 0.087 µM
  TGI: 2.39 µM
SW-620 colon
  GI50: < 0.01 µM
  TGI: 12.5 µM
T-47D breast
  GI50: 15.2 µM
  TGI: 43.1 µM
TK-10 renal
  GI50: 0.0704 µM
  TGI: 27.4 µM
U251 glioblastoma
  GI50: 0.0466 µM
  TGI: 10.6 µM
UACC-257 melanoma
  GI50: < 0.01 µM
  TGI: < 0.01 µM
UACC-62 melanoma
  GI50: < 0.01 µM
  TGI: 0.0159 µM
UO-31 renal
  GI50: 0.0408 µM
  TGI: 20.2 µM
